Results published in patent US9617256B2 (priority 2007, dated 2017).
Converted amounts (≈) assume the structure as drawn.

Key:
APAE001 (ATCC27853) = assay: MIC broth microdilution, APAE001; assay type: cell-based, P. aeruginosa; conditions: Pseudomonas aeruginosa, ATCC27853, read-out: MIC APAE001, APAE001 is ATCC27853
Method in brief: (§1)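 Incubation: 35° C., ambient air, 18-24 h. Medium: cation-adjusted Mueller-Hinton broth with 2-fold serial dilutions of drug. Inoculum: 3×10^5–7×10^5 CFU/mL final, per CLSI microdilution method.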

[1] = system: APAE006 (strain of P. aeruginosa in which all efflux pumps are inactivated); assay: microbe, parasite or virus in culture; assay type: cell-based; conditions: Pseudomonas aeruginosa, read-out: MIC APAE006, P. aeruginosa, all efflux pumps inactivated
Method in brief: (§2)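 Broth microdilution (CLSI); CA-MHB; 3×10^5–7×10^5 CFU/mL final; 2-fold dilutions; 35° C., ambient air, 18-24 h. APAE006 lacks all active efflux pumps.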

[2] = system: ASAU001 (laboratory strain of S. aureus, ATCC29213); assay: MIC broth microdilution, ASAU001; assay type: cell-based; conditions: Staphylococcus aureus, ATCC29213, read-out: MIC ASAU001
Method in brief: as §1

[3] = system: AABA1060 (clinical isolate of Acinetobacter baumannii); assay: MIC broth microdilution, AABA1060; assay type: cell-based; conditions: Acinetobacter baumannii, read-out: MIC AABA1060
Method in brief: as §1

AECO001 HSA AGP = assay: MIC broth microdilution, AECO001 HSA AGP; assay type: cell-based, E. coli; conditions: Escherichia coli
Method in brief: as §1

AECO001 (ATCC25922) = assay: MIC broth microdilution, AECO001; assay type: cell-based, E. coli; conditions: Escherichia coli, ATCC25922, read-out: MIC AECO001
Method in brief: as §1

[4] = system: APAE006 in the presence of 8 micrograms per milliliter of polymyxin B nonapeptide; assay type: cell-based, P. aeruginosa; conditions: in the presence of 8 micrograms per milliliter of polymyxin B nonapeptide
Method in brief: as §2

[5] = system: AECO063 (ATCC25922 bearing an acrAB mutation); assay: microbe, parasite or virus in culture; assay type: cell-based, E. coli; conditions: Escherichia coli, ATCC25922, read-out: MIC AECO063
Method in brief: as §1

Compound | MIC (APAE001 (ATCC27853)) [µg/mL] | MIC [1] [µg/mL] | MIC [2] [µg/mL] | MIC [3] [µg/mL] | MIC (AECO001 HSA AGP) [µg/mL] | MIC (AECO001 (ATCC25922)) [µg/mL] | MIC APAE006 + PMBN [4] | MIC [5] [µg/mL]
COC(=O)[C@@H](NC(=O)c1ccc(C#C/C(F)=C/c2ccc(CN3CCOCC3)cc2)cc1)[C@@H](C)O [Example 109-2, (2S,3R)-methyl 2-(4-((Z)-3-fluoro-4-(4-(morpholinomethyl)phenyl)but-3-en-1-ynyl)benzamido)-3-hydroxybutanoate] | 2 to 16 (≈ 4.16 to 33.3 µM) | < 2 | 16 to 64 (≈ 33.3 to 133 µM) | 2 to 16 (≈ 4.16 to 33.3 µM) | 2 to 16 (≈ 4.16 to 33.3 µM) | < 2 | A (MIC's of 2.0 μg/mL or less = A) | < 2
CC(C)[C@H](NC(=O)c1ccc(/C=C/C#Cc2ccc(CN3CCOCC3)cc2)cc1)C(=O)NO [Example 110-2] | 2 to 16 (≈ 4.33 to 34.7 µM) | < 2 | > 64 | 2 to 16 (≈ 4.33 to 34.7 µM) | 2 to 16 (≈ 4.33 to 34.7 µM) | < 2 | A (MIC's of 2.0 μg/mL or less = A) | < 2
C[C@@H](N)[C@H](NC(=O)c1ccc(/C=C/C#Cc2ccc(CN3CCOCC3)cc2)cc1)C(=O)NO [Example 110-3] | < 2 | < 2 | > 64 | 2 to 16 (≈ 4.32 to 34.6 µM) | 2 to 16 (≈ 4.32 to 34.6 µM) | < 2 | A (MIC's of 2.0 μg/mL or less = A) | < 2
O=C(N[C@H](C(=O)NO)C1CCOCC1)c1ccc(/C=C/C#Cc2ccc(CN3CCOCC3)cc2)cc1 [Example 110-4] | 2 to 16 (≈ 3.97 to 31.8 µM) | < 2 | 16 to 64 (≈ 31.8 to 127 µM) | 16 to 64 (≈ 31.8 to 127 µM) | 2 to 16 (≈ 3.97 to 31.8 µM) | < 2 | A (MIC's of 2.0 μg/mL or less = A) | < 2
C[C@H](O)[C@H](NC(=O)c1ccc(/C=C/C#Cc2ccc(CN3CCOCC3)cc2)cc1)C(=O)NO [Example 110-5] | 2 to 16 (≈ 4.31 to 34.5 µM) | < 2 | > 64 | 2 to 16 (≈ 4.31 to 34.5 µM) | 2 to 16 (≈ 4.31 to 34.5 µM) | < 2 | A (MIC's of 2.0 μg/mL or less = A) | < 2
COC(C)[C@H](NC(=O)c1ccc(/C=C/C#Cc2ccc(CN3CCOCC3)cc2)cc1)C(=O)NO (stereo partly drawn) [Example 110-6] | 2 to 16 (≈ 4.19 to 33.5 µM) | < 2 | > 64 | 2 to 16 (≈ 4.19 to 33.5 µM) | 2 to 16 (≈ 4.19 to 33.5 µM) | < 2 | A (MIC's of 2.0 μg/mL or less = A) | < 2
CC(C)(O)[C@H](NC(=O)c1ccc(/C=C/C#Cc2ccc(CN3CCOCC3)cc2)cc1)C(=O)NO [Example 110-7] | 2 to 16 (≈ 4.19 to 33.5 µM) | < 2 | > 64 | < 2 | 2 to 16 (≈ 4.19 to 33.5 µM) | < 2 | A (MIC's of 2.0 μg/mL or less = A) | < 2
O=C(N[C@H](C(=O)NO)C1CCS(=O)(=O)CC1)c1ccc(/C=C/C#Cc2ccc(CN3CCOCC3)cc2)cc1 [Example 110-8] | 2 to 16 (≈ 3.63 to 29 µM) | < 2 | > 64 | 16 to 64 (≈ 29 to 116 µM) | 16 to 64 (≈ 29 to 116 µM) | < 2 | A (MIC's of 2.0 μg/mL or less = A) | < 2
O=C(N[C@H](C(=O)NO)C1CC1)c1ccc(/C=C/C#Cc2ccc(CN3CCOCC3)cc2)cc1 [Example 110-9] | 2 to 16 (≈ 4.35 to 34.8 µM) | < 2 | > 64 | 2 to 16 (≈ 4.35 to 34.8 µM) | 2 to 16 (≈ 4.35 to 34.8 µM) | < 2 | A (MIC's of 2.0 μg/mL or less = A) | < 2
O=C(N[C@@H](Cn1cncn1)C(=O)NO)c1ccc(/C=C/C#Cc2ccc(CN3CCOCC3)cc2)cc1 [Example 110-10] | 2 to 16 (≈ 4 to 32 µM) | < 2 | 16 to 64 (≈ 32 to 128 µM) | 16 to 64 (≈ 32 to 128 µM) | 2 to 16 (≈ 4 to 32 µM) | < 2 | A (MIC's of 2.0 μg/mL or less = A) | < 2
O=C(N[C@H](C(=O)NO)c1ccccc1)c1ccc(/C=C/C#Cc2ccc(CN3CCOCC3)cc2)cc1 [Example 110-11] | 16 to 64 (≈ 32.3 to 129 µM) | < 2 | 16 to 64 (≈ 32.3 to 129 µM) | 16 to 64 (≈ 32.3 to 129 µM) | 2 to 16 (≈ 4.04 to 32.3 µM) | < 2 | A (MIC's of 2.0 μg/mL or less = A) | < 2
O=C(NC(C(=O)NO)C(F)(F)F)c1ccc(/C=C/C#Cc2ccc(CN3CCOCC3)cc2)cc1 (stereo not drawn) [Example 110-12] | 2 to 16 (≈ 4.1 to 32.8 µM) | < 2 | 16 to 64 (≈ 32.8 to 131 µM) | < 2 | < 2 | < 2 | A (MIC's of 2.0 μg/mL or less = A) | < 2
